The values that follow come from US20140349970A1 (ABBVIE INC., priority 2009, published 2014).

SMILES strings stand for the structures. Where a name gives a salt, the structure may show the parent alone.

For one experiment, the target named is T1, Syk catalytic domain (aa 356-635 with a C-terminal His-tag) (Homo sapiens, UniProt P43405).
T1 construct: His-tag (C); made in house
In words: In vitro Syk kinase activity measured by trFRET, Syk catalytic domain. Format: biochemical.
Conditions: not given
The gist of the method:
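Kinase reaction: 0.14 nM His-tagged catalytic domain, 0.2 μM biotin-TYR1 peptide, 0.001 mM ATP in 50 mM MOPSO pH 6.5 with MgCl2, MnCl2, DTT, BSA, vanadate, ~60 min at rt, then EDTA quench. Phosphoproduct detected by trFRET (Eu anti-pTyr antibody/streptavidin-APC, 665 nm emission); IC50 from signal in linear range.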
Usually IC50 stands for the midpoint of a concentration-inhibition curve. Read a low IC50 as inhibition by little substance. On to `Cc1nc(-c2ccc(C3(O)COC3)cc2)c2cnc3[nH]ccc3n12` [AC.1.33], for which the IC50 was in the range of 0.1 to 1 µM.
`CCCNC(=O)c1ccc(-c2nc(C)n3c2cnc2[nH]ccc23)cc1` [AC.1.29] displayed an IC50 of less than 0.1 µM.
On to `Cn1nc(-c2ccc(C(C)(C)O)cc2)c2cnc3[nH]ccc3c21` [S.1.3], for which the IC50 was less than 0.1 µM.
Still for that read-out and setting: the result for `CC(=O)NCCc1ccc(-c2nc(C3CCCCC3)n3c2cnc2[nH]ccc23)cc1` [AC.3.19] reads 0.1 to 1 µM; that for `CC(=O)c1ccc(-c2nn(C)c3c2cnc2[nH]ccc23)cc1` [W.1.1, 1-(4-(1-Methyl-1,6-dihydropyrazolo[3,4-d]pyrrolo[2,3-b]pyridin-3-yl)phenyl)ethanone], 0.1 to 1 µM.
As to `COc1ccc(-c2ncn3c2cnc2[nH]ccc23)cc1C` [AC.4.10], the IC50 was less than 0.1 µM.
The same measure, in the same setting: to `CC(=O)c1cc(-c2ncn3c2cnc2[nH]ccc23)ccn1` [AC.4.4] belongs 0.1 to 1 µM; to `Cc1nc(-c2ccc(C3(O)CCNCC3)cc2)c2cnc3[nH]ccc3n12` [P.3.1.5, 4-(4-(1-Methyl-6H-imidazo[1,5-a]pyrrolo[2,3-e]pyrazin-3-yl)phenyl)piperidin-4-ol hydrochloride], less than 0.1 µM.
`OC1(c2ccc(-c3ncn4c3cnc3[nH]ccc34)cc2)CCNCC1` [P.3.1.6] returned an IC50 of less than 0.1 µM.
Consider `CS(=O)(=O)NCc1ccc(-c2nc(C3CCCCC3)n3c2cnc2[nH]ccc23)cc1` [AC.3.18], for which the IC50 lay in the range of 0.1 to 1 µM.
The same measure, in the same setting: the result for `COc1ccc(-c2nn(CCO)c3c2cnc2[nH]ccc23)cc1` [AU.1.3] reads 0.1 to 1 µM; that for `Cc1c(-c2ccc(C(C)(C)O)cc2)[nH]c2ncc3nnc(C)n3c12` [S.1.5], 1 to 10 µM; that for `Cc1nc(-c2ccc(S(=O)(=O)C(C)C)cc2)c2cnc3[nH]ccc3n12` [AC.1.11], 0.1 to 1 µM.
Still for that read-out and setting: to `CN1CCN(Cc2ccc(-c3nc(C4CCCCC4)n4c3cnc3[nH]ccc34)cc2)CC1` [AC.3.14] belongs 0.1 to 1 µM.
On to `CC(=O)N[C@@H]1C[C@H](c2nc(-c3ccc(C(C)(C)O)cc3)c3cnc4[nH]ccc4n23)N(S(=O)(=O)C2CC2)C1` [AC.5.2], for which the IC50 was in the range of 0.1 to 1 µM.
The same measure, in the same setting: the result for `Cc1nc(-c2ccc(S(=O)(=O)NC3CC3)cc2)c2cnc3[nH]ccc3n12` [AC.1.40] reads 0.1 to 1 µM.
Take `CC(C)(O)c1ccc(-c2nc([C@H]3CCC[C@H](N)C3)n3c2cnc2[nH]ccc23)cc1` [P.3.1.9]: the IC50 is less than 0.1 µM.
With `COc1ccc(-c2n[nH]c3c2cnc2[nH]ccc23)cc1` [AU.1.2], the IC50 is less than 0.1 µM.
For the compound `COc1ccc(-c2nc(CN3CCNC(CO)C3)n3c2cnc2[nH]ccc23)cc1` (centres unmarked) [T.3.1.6], the IC50 lay within 0.1 to 1 µM.
Still for that read-out and setting: the result for `Cc1nc(-c2ccc3c(c2)CCO3)c2cnc3[nH]ccc3n12` [AC.1.26] reads 0.1 to 1 µM.

Staying with this experiment, now noted: Syk catalytic domain (aa 356-635), trFRET, 0.001 mM ATP.
As for `COc1ccc(-c2nn(C)c3c2cnc2[nH]cc(Br)c23)cc1` [AK.1, 8-Bromo-3-(4-methoxyphenyl)-1-methyl-1,6-dihydropyrazolo[3,4-d]pyrrolo[2,3-b]pyridine], the IC50 is less than 0.1 µM.
The same measure, in the same setting: the result for `COc1ccc2c(c1)c(-c1cc3c(ncc4cnc([C@@H]5CCNC5)n43)[nH]1)cn2C` [T.1.1.2, (R)-7-(5-Methoxy-1-methyl-1H-indol-3-yl)-1-(pyrrolidin-3-yl)-6H-imidazo[1,5-a]pyrrolo[2,3-e]pyrazine diacetate] reads less than 0.1 µM.
Same read-out and setting: to `CCc1c[nH]c2ncc3c(-c4ccc(OC)cc4)nn(C)c3c12` [N.1.74] belongs 1 to 10 µM; to `Cn1ncc2cnc3[nH]c(-c4ccc(C(C)(C)O)cc4)c(C#N)c3c21` [D.2.3], less than 0.1 µM.
Same read-out and setting: to `CCCNC(=O)c1cc(-c2nc(C)n3c2cnc2[nH]ccc23)ccc1OC` [J.1.7.1] belongs 0.1 to 1 µM.
Compound `CC(=O)NC(C)(C)c1ccc(-c2nc(C3CCCCC3)n3c2cnc2[nH]ccc23)cc1` [J.2.1.4] had an IC50 of less than 0.1 µM.
The same measure, in the same setting: to `COc1ccc(-c2nc(C3CC3)n3c2cnc2[nH]ccc23)cc1` [N.1.87] belongs less than 0.1 µM; to `Cc1nc(-c2ccc(C3(O)CCN(C(=O)CC#N)CC3)cc2)c2cnc3[nH]ccc3n12` [J.1.3.1], less than 0.1 µM.
`COCCNC(=O)Cn1cc(-c2cc3c(ncc4cnn(C)c43)[nH]2)c2cc(OC)ccc21` [N.1.28] yielded an IC50 of less than 0.1 µM.
The same measure, in the same setting: to `COc1ccc2c(c1)c(-c1cc3c(ncc4cnn(C)c43)[nH]1)cn2C(C)C` [N.1.81] belongs 0.1 to 1 µM; to `COc1ccc(-c2nc(CNC3CC3)n3c2cnc2[nH]ccc23)cc1` [N.1.114], 1 to 10 µM; to `COc1ccc(-c2nc(CN(C)C)n3c2cnc2[nH]ccc23)cc1` [N.1.89], 1 to 10 µM.
In the case of `Cn1ncc2cnc3[nH]c(-c4cccc(S(=O)(=O)NCCN5CCOCC5)c4)cc3c21` [N.1.41], the IC50 lay within 0.1 to 1 µM.
`CC(C)(O)c1ccc(-c2nc(-c3ccccc3CO)n3c2cnc2[nH]ccc23)cc1` [N.1.109]: the IC50 was less than 0.1 µM.
In the case of `CN(CC(C)(C)CO)C(=O)c1ccc2c(c1)c(-c1cc3c(ncc4cnn(C)c43)[nH]1)cn2C` [J.1.8.5], the IC50 was less than 0.1 µM.
In turn, `CN(C)CCOc1ccc(-c2cc3c(ncc4cnn(C)c43)[nH]2)cc1` [N.2.3] showed an IC50 of 0.1 to 1 µM.
For the compound `CCCc1nc(-c2ccc(OC)cc2)c2cnc3[nH]ccc3n12` [N.1.92], the IC50 is less than 0.1 µM.
In turn, `COc1ccc2c(c1)c(-c1cc3c(ncc4cnc(C)n43)n1COP(=O)(O)O)cn2C` [Example 10, (7-(5-Methoxy-1-methyl-1H-indol-3-yl)-1-methyl-6H-imidazo[1,5-a]pyrrolo[2,3-e]pyrazin-6-yl) methyl disodium phosphate] returned an IC50 of 1 to 10 µM.
Consider `Cn1cc(-c2cc3c(ncc4cnn(C)c43)[nH]2)c2cc(C(=O)O)ccc21` [AN.1, 1-Methyl-3-(1-methyl-1,6-dihydropyrazolo[3,4-d]pyrrolo[2,3-b]pyridin-7-yl)-1H-indole-5-carboxylic acid], for which the IC50 was less than 0.1 µM.
Regarding `COc1ccc2[nH]cc(-c3cc4c(ncc5cnn(C)c54)[nH]3)c2c1` [N.1.19], the IC50 was less than 0.1 µM.
On the same count and under the same terms, to `Cn1ncc2cnc3[nH]c(-c4ccc(C(C)(C)O)cc4)cc3c21` [N.1.1] belongs less than 0.1 µM.
Same read-out and setting: to `CCc1c[nH]c2ncc3c(-c4ccc5nccnc5c4)nn(C)c3c12` [N.1.68] belongs 1 to 10 µM; to `CN(C)S(=O)(=O)c1cccc(-c2cc3c(ncc4cnn(C)c43)[nH]2)c1` [N.1.32], less than 0.1 µM.
Regarding `Cc1ncc2cnc3[nH]c(-c4cnn(C)c4)cc3n12` [M.2.1], the IC50 fell in the range of 0.1 to 1 µM.
On to `CS(=O)(=O)c1ccc(-c2nc(C3CCCN(C(=O)CCO)C3)n3c2cnc2[nH]ccc23)cc1` (centres unmarked) [N.1.62], for which the IC50 lay in the range of 1 to 10 µM.
Same read-out and setting: the result for `Cc1nc(-c2ccc(C3(O)CCN(C(=O)OC(C)(C)C)CC3)cc2)c2cnc3[nH]ccc3n12` [N.1.99] reads less than 0.1 µM; that for `CC(C)(O)c1ccc(-c2nc([C@@H]3CCCN(C(=O)C4(C#N)CC4)C3)n3c2cnc2[nH]ccc23)cc1` [D.2.2], 0.1 to 1 µM; that for `CC(C)(O)c1ccc(-c2nc(N3CCC(CN)C3)n3c2cnc2[nH]ccc23)cc1` (centres unmarked) [N.1.66], less than 0.1 µM.
On to `Cn1ncc2cnc3[nH]c(-c4cccc(CNS(C)(=O)=O)c4)cc3c21` [K.1, N-(3-(1-Methyl-1,6-dihydropyrazolo[3,4-d]pyrrolo[2,3-b]pyridin-7-yl)benzyl)methanesulfonamide], for which the IC50 was in the range of 0.1 to 1 µM.
Still for that read-out and setting: the result for `COCCC(=O)N1CCCC(c2nc(-c3ccc(S(C)(=O)=O)cc3)c3cnc4[nH]ccc4n23)C1` (centres unmarked) [N.1.63] reads 1 to 10 µM.
Regarding `CN(C)C(=O)c1ccc2c(c1)c(-c1cc3c(ncc4cnn(C)c43)[nH]1)cn2C` [J.1.8.4], the IC50 is less than 0.1 µM.
The same measure, in the same setting: the result for `CC(C)(O)c1ccc(-c2nc(CN3CCCNCC3)n3c2cnc2[nH]ccc23)cc1` [N.1.97] reads 0.1 to 1 µM.
On the same count and under the same terms, to `CS(=O)(=O)c1cccc(-c2cc3c(ncc4cnc(CCCNC(=O)C(F)(F)F)n43)[nH]2)c1` [M.1.4] belongs 0.1 to 1 µM; to `Cn1ncc2cnc3[nH]c(-c4cccn4CC(=O)N4CCOCC4)cc3c21` [J.2.3.2], 1 to 10 µM; to `COc1ccc(-c2nc(C)n3c2cnc2[nH]ccc23)cc1C(=O)NCCO` [J.1.7.3], 0.1 to 1 µM.
Same read-out and setting: the result for `COc1ccc2c(c1)c(-c1cc3c(ncc4cnn(C)c43)[nH]1)nn2C` [N.1.83] reads 0.1 to 1 µM; that for `CN1CCN(C(=O)Cn2cccc2-c2cc3c(ncc4cnn(C)c43)[nH]2)CC1` [J.2.3.3], greater than 10 µM.
On to `Cn1cc(-c2cc3c(ncc4cnn(C)c43)[nH]2)c2cc(OCCN3CCOCC3)ccc21` [N.1.112], for which the IC50 is less than 0.1 µM.
`Cc1cc(-c2cc3c(ncc4cnn(C)c43)[nH]2)ccc1N1CCN(C)CC1` [N.1.115]: the IC50 was less than 0.1 µM.
The same measure, in the same setting: to `CC(C)(O)c1ccc(-c2nc(C3CC[C@H](NS(=O)(=O)C4CC4)C3)n3c2cnc2[nH]ccc23)cc1` (some centres unmarked) [N.1.51] belongs less than 0.1 µM; to `CNC(=O)Cc1cccc(-c2cc3c(ncc4cnn(C)c43)[nH]2)c1` [N.1.9], 0.1 to 1 µM; to `c1ccc(-c2nc(C3CCCCC3)n3c2cnc2[nH]ccc23)cc1` [Example 2, 1-Cyclohexyl-3-phenyl-6H-imidazo[1,5-a]pyrrolo[2,3-e]pyrazine], 1 to 10 µM.
Same read-out and setting: to `CC(=O)N[C@H]1CC[C@@H](c2ncc3cnc4[nH]c(-c5cccc(S(C)(=O)=O)c5)cc4n23)C1` [J.2.1.2] belongs 0.1 to 1 µM; to `Cn1cc(-c2cc3c(ncc4cnn(C)c43)[nH]2)c2cc(C(=O)NCCN3CCOCC3)ccc21` [J.1.8.1], less than 0.1 µM.
The same measure, in the same setting: the result for `COc1ccc(-c2cc3c(ncc4c(C)ncn43)[nH]2)cc1` [M.1.23] reads 1 to 10 µM; that for `CC(C)(O)c1ccc(-c2nc(C(F)(F)F)n3c2cnc2[nH]ccc23)cc1` [N.1.58], 0.1 to 1 µM; that for `CN1CCN(C(=O)CNC(=O)c2ccc3c(c2)c(-c2cc4c(ncc5cnn(C)c54)[nH]2)cn3C)CC1` [J.1.8.6], less than 0.1 µM.
With `Cc1nc(-c2ccc(C(C)(C)O)cc2)c2cnc3[nH]cc(C#N)c3n12` [M.2.4], the IC50 is less than 0.1 µM.
